Where a SMILES comes first, the peptide text is derived from it. Where no end group is shown, it is not given here. [ ]: non-standard residue; d: D form.
Columns and labels:
H1650 cells = format: cell-based
Procedure: IC50 (half maximal inhibitory concentration; μM) values in lung cancer cells. […] The residues marked in red/bold are D-isoforms of amino acids (SEQ ID NOS: 57, 48-54, 40-42 45 and 47 in order of appearance).
Molecular basis of MPS peptide and its potential for increasing nintedanib efficacy. […] A kinetic assay confirmed that this peptide binds PIP2 with a dissociation constant of 17.64 nM (FIG. 10B). As expected, a decrease of PIP3 pools in whole cell lysates of MPS-treated IPF fibroblasts was observed (FIG. 10C), supporting the notion that MPS peptide is able to inhibit AKT activation through trapping PIP2. In view of adverse effects of the current IPF therapeutic nintedanib^9, 10, there is an urgent clinical need to improve the efficacy of such treatment in IPF. Since the TGF-β receptor is not a direct target of nintedanib, targeting an element of TGF-β signaling in tandem with nintedanib administration circumvents the shortcomings of nintedanib monotherapy. […] Based on the above observations, it is assumed that TGF-β-directed phospho-MARCKS is a bypass mechanism of activating PI3K/AKT signaling (FIG. 11B); therefore, it seems reasonable that MARCKS inhibition by MPS treatment may improve nintedanib efficacy, permitting lower doses of nintedanib to be used. To this end, the possibility of a synergistic interaction between MPS and nintedanib in order to circumvent the shortcomings of nintedanib monotherapy was tested. […] Furthermore, the Chou and Talalay CI (combination index) method^25 was used to evaluate the therapeutic interactions between nintedanib and MPS peptide. […] Particularly, the values were lower than 1 at ED50, approximately 1 at ED75, and above 1 at ED90 (data not shown). Thus, the combination effect was dose-dependently correlated with the components, and therefore low dose nintedanib in combination with low dose of MPS presents a synergistic effect on cell proliferation. […] On the basis of the sequences of MPS peptide, the rearrangement of PIP2-binding sites in this peptide were designed and synthesized with the intention of enhancing the efficacy and stability of the MPS peptide. FIG. 13 lists the sequences of various MPS derivatives. In light of the cleavage sites of various proteases and PIP2 binding motifs, Applicant replaced some L-isoform amino acids with D-isoform and these peptides were named as MPS-12042 and MPS-22026. To further validate the efficacy of the above MPS derivatives, Applicant performed a dose-course analysis of H1650 cells undergoing each MPS derivative treatment.

IPF fibroblast cells = assay: cells; format: cell-based, human; conditions: Homo sapiens; IPF fibroblast cells, 72 hours; read-out: IC50 inhibiting IPF fibroblast proliferation
Procedure: FIG. 14: Comparison of MPS-12042 (SEQ ID NO: 45) versus know tyrosine kinase inhibitor (TKLs) on the treatment of IPF fibroblast cells. Both normal and IPF lung fibroblast cells were treated with various drugs. After 72 hours, cells were subjected to MTT assays and IC50 for each drug was determined.
Human primary fibroblast cells were obtained from airway tissues provided from the UC Davis Medical Hospital (Sacramento, Calif.) with consent. The protocol for human tissue procurement and usage were periodically reviewed and approved by the University Human Subject Research Review Committee. Primary fibroblast cell lines, IPF-1 and IPF-2 cells, were established from IPF patients. Cells were obtained from lung biopsies and the diagnosis of IPF was supported by patient history, physical examination, pulmonary function tests, and typical high-resolution chest computed tomography findings of IPF. […] All patients fulfilled the criteria for the diagnosis of IPF as established by the American Thoracic Society and European Respiratory Society. Non-fibrotic primary control adult human lung fibroblast lines, Normal-1 and Normal-2 cells were used. These lines were established from normal lung tissue or histologically normal lung tissue adjacent to carcinoid tumor. The IPF cell line, LL97A, was purchased from the American Type Culture Collection (ATCC) (Manassas, Va.). Lung fibroblast lines were cultured in high-glucose DMEM or RPMI-1640 medium with 10% fetal bovine serum and 1% penicillin-streptomycin at 37° C. in a humidified atmosphere of 5% CO2. Fibroblasts were used between passages 4 and 8. Cells were characterized as fibroblasts as described^26.
Cells were seeded onto 96-well plates at a density of 5-10×10^3 cells per well and cultured for the indicated treatment. Cell proliferation was evaluated using a MTS assay kit (Promega, Madison, Wis.). Twenty microliters of the combined MTS/PMS solution was added into each well, incubated for 3 hours at 37° C., and the absorbance was measured at 490 nm by using an ELISA reader. For Trypan blue test, cells were plated on 12-well plates and treated with the indicated chemotherapeutic agents. After 72 hours, both attached and detached cells were collected and then stained with 0.2% trypan blue (0.1% final concentration), and the number of trypan blue-positive and -negative cells was counted using a haemocytometer under low-power microscopy. For colony-forming assays, 200 cells were seeded in each well of six-well plates. IPF-1 or IPF-2 primary cells were treated with peptides at the indicated concentrations for 10 days. Colonies were stained using 0.001% crystal violet and the number of colonies with a diameter greater than 0.5 mm was counted under an inverted microscope.

primary IPF fibroblasts = assay: Combination of nintedanib and MPS peptide, cell viability by MTT, Chou and Talalay CI; format: cell-based, human; conditions: nintedanib 62.5-2000 nM and/or MPS 6.25-200 μM, 72 hours
Procedure: FIGS. 12A-12E: (FIGS. 12A-12B) Combinatorial effect of MPS peptide with nintedanib on fibroblasts isolated from two IPF patients. Cells were treated with various closes of nintedanib (62.5-2000 nM) and/or MPS peptide (6.25-200 μM) for 72 hours, respectively. After single ([…]) or combined ([…]) treatment, cell viability was determined by MTT assays. (FIG. 12C) The Chou and Talalay CI (combination index) method was utilized to evaluate the therapeutic interactions between nintedanib and MPS peptide using the Calcusyn software. Gray line, additive effect of the combination of MPS peptide and the drug is represented at CI=1. (FIG. 12D) Cells were individually treated with 1 μM nintedanib, 100 μM MPS peptide or combinations of 1 μM nintedanib and 100 μM MPS peptide. After 48 hours, cell viability was determined by the trypan blue exclusion assay (n+3; *, p<0.05). […] Molecular basis of MPS peptide and its potential for increasing nintedanib efficacy. […] A kinetic assay confirmed that this peptide binds PIP2 with a dissociation constant of 17.64 nM (FIG. 10B). As expected, a decrease of PIP3 pools in whole cell lysates of MPS-treated IPF fibroblasts was observed (FIG. 10C), supporting the notion that MPS peptide is able to inhibit AKT activation through trapping PIP2. […]

α-SMA and phospho-AKT = assay: Western blot of α-SMA and phospho-AKT in primary IPF fibroblasts; format: cell-based, human; conditions: nintedanib 1000 nM, 48 hours
Procedure: FIGS. 11A-11B: (FIG. 11A) Western blot analysis of α-SMA and phospho-AKT in primary IPF fibroblasts with nintedanib (1000 nM) and/or MPS (100 μM) for 48 hours. (FIG. 11B) A proposed model of activating the PI3K/AKT pathway after nintedanib treatment. An arrow: a direct interaction. Western blot analyses and the preparations of whole-cell lysates have been previously described^14, 16, 27 For whole cell lysates, cells were lysed in a lysis buffer (50 mM Tris-HCl (pH 7.4), 1% Triton X-100, 10% glycerol, 150 mM NaCl, 1 mM EDTA, 20 μg/ml leupeptin, 1 mM PMSF and 20 μg/ml aprotinin) and separated by SDS-PAGE. Immunoblotting was conducted with appropriate antibodies followed by chemiluminescent detection. For immunofluorescent staining, after an antigen retrieval step, tissue slides were reacted with antibodies against FITC-labeled α-SMA and TRITC-conjugated phospho-MARCKS, and nuclei were demarcated with DAPI staining. The cells were mounted onto slides and visualized using fluorescence microscopy (model Axiovert 100; Carl Zeiss, Oberkochen, Germany) or a Zeiss LSM510 laser-scanning confocal microscope image system.

Molecule | IC50 (H1650 cells) | also measured
CC(C)C[C@@H](NC(=O)[C@@H](C)NC(=O)[C@@H](Cc1ccccc1)NC(=O)[C@@H](C)NC(=O)CNC(=O)[C@@H](Cc1ccccc1)NC(=O)[C@H](C)NC(=O)[C@@H](Cc1ccccc1)NC(=O)[C@H](CCCCN)NC(=O)[C@H](CCCCN)NC(=O)[C@H](CCCCN)NC(=O)[C@H](CCCCN)NC(=O)[C@@H](N)CCCCN)C(=O)N[C@@H](CCCCN)C(=O)N[C@H](CCCCN)C(=O)N[C@H](Cc1ccccc1)C(=O)N[C@@H](C)C(=O)N[C@H](Cc1ccccc1)C(=O)N[C@H](CCCNC(=N)N)C(=O)N[C@H](CCCCN)C(=O)N[C@@H](CCCCN)C(=O)N[C@@H](CCCCN)C(=O)N[C@@H](CC(N)=O)C(=O)N[C@H](CCCCN)C(=O)N[C@@H](CCCCN)C(=O)O [MPS-22026] (H-KKKKK[dF]A[dF]G[dA][dF][dA][dL]K[dK][dF]A[dF][dR][dK]KKN[dK]K-OH; N-terminus and C-terminus assumed) | 11 µM | –
COC(=O)c1ccc2c(c1)NC(=O)/C2=C(\Nc1ccc(N(C)C(=O)CN2CCN(C)CC2)cc1)c1ccccc1 [nintedanib, reference compound] | – | IC50 (IPF fibroblast cells): 13.8 to 15.9 µM; Cell viability (primary IPF fibroblasts): decreased; phospho-AKT (α-SMA and phospho-AKT): no change; α-SMA expression (α-SMA and phospho-AKT): increase
AKKKKRFSFKKSFKLSGFSFKKNKK [MPS-11001] | 85 µM | –
Ac-KKKKKRFSFKKSFKLSGFSFKKNKK-NH2 [MPS-11200] | 78 µM | –
FSFGSFSLKKFSFRKKKNKK [MPS-21010] | 83 µM | –
KKAKKRFSFKKSFKLSGFSFKKNKK [MPS-11003] | 85 µM | –
KKKKFAFGAFALKKFAFRKKKNKK [MPS-21026] | 49 µM | –
KKKKFSFGSFSLKKFSFRKKKNKK [MPS-21020] | 64 µM | –
KKKKKAFSFKKSFKLSGFSFKKNKK [MPS-11006] | 79 µM | –
KKKKKRFSFAKSFKLSGFSFKKNKK [MPS-11010] | 73 µM | –
KKKKKRFSFKASFKLSGFSFKKNKK [MPS-11011] | 29 µM | –
KKKKKRFSFKKSFKLSGFSFKANKK [MPS-11022] | 83 µM | –

Reference: patent US20220267390A1, “MPS MODIFIED PEPTIDES AND USE THEREOF” (The Regents of the University of California, priority 2019, published 2022)
